Measured values taken from EP1818052A1 (Acacia Pharma Limited, priority 2004, dated 2006).
Several values for one entry are separate records, joined by “and”; a condition that tells them apart may be missing. Equal values may be shown once. Read-outs that look alike come from different tables or passages of the source.

Key:
[1] = system: rats bearing Yoshida AH-130 ascites hepatoma; settings: rat, in vivo
isolated EDL muscles [2] = system: isolated EDL muscles
Method: (§1) The dissection and isolation of the EDL muscles was carried out under ketamine/xylazine mixture anesthesia. […] Such muscles are able to maintain normal ATP and phosphocreatine concentrations during a 3 hours incubation period. The muscles were incubated in a shaking-thermostatized water bath at 35 °C for 3 hours in 2 ml of Krebs-Henseleit physiological saline pH 7.4, containing 5 mM glucose and 20 mM HEPES. After the addition of the muscles to the vials, the incubation started at a shaking rate of 45 cycles/min.
(§2) Total protein degradation by the isolated muscles was calculated as the rate of tyrosine released in the last two hours of incubation into the medium in the presence of 0.5 mM cycloheximide in order to block the reincorporation of tyrosine into tissue protein. Tyrosine was measured fluorimetrically. Statistical analysis of the data was performed by means of the Student's t test.
Rates were measured in presence of cycloheximide (0.5 mM) and are expressed as nmols/g and 2 hours. […]

isolated EDL muscles [3] = experiment: Protein synthesis rate in incubated isolated EDL muscles; format: cell-based, rats; settings: for Rate of protein synthesis: EDL muscles from control rats, 10^-4 M added to incubation medium; for increase of the rate of protein synthesis: incubated rat EDL muscles, 10^-4 M in medium
Method: as §1
Synthetic rates are expressed as nmols of [^14C]phenylalanine incorporated per g and 30 min. […]

[4] = system: rats bearing Yoshida AH-130 ascites hepatoma; settings: rat, in vivo; remark: listed apart in the source
[5] = system: rats bearing Yoshida AH-130 ascites hepatoma; settings: rat, in vivo; remark: listed apart in the source
isolated EDL muscles [6] = experiment: Proteolytic rate (tyrosine release) in incubated isolated EDL muscles; format: cell-based, rats; settings: for Proteolytic rate: EDL muscles from control rats, 10^-4 M added to incubation medium, cycloheximide 0.5 mM
Method: as §1, §2

[7] = system: tibialis muscles previously injected with bupivacain; experiment: Muscular damage by bupivacain: tibialis muscle weight; format: in vivo; settings: rats injected with bupivacain (0.5%) only (C+B)
From the text: Muscular regeneration is a process that implies satellite cells activation, muscle precursors cells that lie adjacent to the skeletal muscle fibers. The muscle was damaged by injecting bupivacain intramuscularly (0.5%). This compound, after muscle damage, stimulates muscular regeneration.
Muscle weights are expressed as mg/100 g of initial body weight. Results are mean ± SEM for the number of animals indicated in parentheses.

Pax-7 and myogenin = experiment: Real time PCR of satellite cell activation markers in tibialis muscle after bupivacain damage; format: in vivo, rats; settings: bupivacain (0.5%) only (C + B)
From the text: PAx-7 and myogenin. Results are mean ± SEM for the number of animals indicated in parentheses.

For `COc1ccc(C[C@H](C)NC[C@@H](O)c2ccc(O)c(NC=O)c2)cc1` (racemic) [formoterol], the carcass weigth [1] was 106 ± 1 g/100 g of initial body weight and 97 ± 1 g/100 g of initial body weight, the “effect on cancer cachexia” value [1] was “effective at low doses” and the “muscle weigths: EDL” value [1] was 52 ± 1 t mg/100 g of initial body weight and 51 ± 2 t mg/100 g of initial body weight. For the same molecule, the “muscle weigths: gastrocnemius” value [1] was 629 ± 9 mg/100 g of initial body weight and 598 ± 16 mg/100 g of initial body weight, the “muscle weigths: heart” value [1] was 431 ± 5 mg/100 g of initial body weight and 417 ± 18 mg/100 g of initial body weight and the “muscle weigths: soleus” value [1] was 43 ± 2 mg/100 g of initial body weight and 43 ± 1 mg/100 g of initial body weight. The “muscle weigths: tibialis” value [1] was 210 ± 5 t mg/100 g of initial body weight and 199 ± 4 t mg/100 g of initial body weight, the Proteolytic rate (isolated EDL muscles [2]; EDL muscles from rats given formoterol 2 mg/kg bw for six consecutive days, cycloheximide 0.5 mM) was 159 ± 5 (8) nmols/g and 2 hours and the “decrease of proteolytic rate” value (isolated EDL muscles [2]; EDL muscles from rats pre-treated for six consecutive days) was 12%. The “Rate of protein synthesis” value (isolated EDL muscles [3]) was 9.36 ± 0.3 (7) nmols of [14C]phenylalanine in, the “increase of the rate of protein synthesis” value (isolated EDL muscles [3]) was 20% and the Tumor cell number [4] was “not significantly affected”. For the same molecule, the “adipose tissues weight: brown (interscapular)” value [4] was 278 ± 21 mg/100 g of initial body weight and 177 ± 11 † *** mg/100 g of initial body weight, the “adipose tissues weight: white (dorsal)” value [4] was 759 ± 126 mg/100 g of initial body weight and 461 ± 49 mg/100 g of initial body weight and the “brown adipose tissue weight” value [4] was “increase”. The carcass weight [4] was 113 ± 11 g/100 g of initial body weight and 81 ± 1 g/100 g of initial body weight, the “increase in EDL weight” value [4] was 32% and 16% and the “increase in cardiac muscle weight” value [4] was 21%. For the same molecule, the “increase in heart weight” value [4] was 11%, the “muscle weight: EDL” value [4] was 70 ± 3 mg/100 g of initial body weight and 50 ± 1 ††† *** mg/100 g of initial body weight and the “muscle weight: gastrocnemius” value [4] was 859 ± 38 mg/100 g of initial body weight and 639 ± 16 mg/100 g of initial body weight. The “muscle weight: heart” value [4] was 520 ± 15 mg/100 g of initial body weight and 426 ± 17 † ** mg/100 g of initial body weight, the “muscle weight: soleus” value [4] was 55 ± 4 mg/100 g of initial body weight and 40 ± 1 mg/100 g of initial body weight and the “muscle weight: tibialis” value [4] was 275 ± 12 mg/100 g of initial body weight and 204 ± 4 †† *** mg/100 g of initial body weight. The “trophic action on soleus” value [4] was “not significantly affected”, the tumor cell content [4] was 3403 ± 88 (5) millions of cells and the “white adipose tissue mass” value [4] was “tendency towards a decrease”. For the same molecule, the efficacy against cachexia [5] was “effective against cachexia”, the “muscle weights: soleus” value [5] was 37 ± 1 mg/100 g of initial body weight and 33 ± 2 mg/100 g of initial body weight and 37 ± 2 mg/100 g of initial body weight and the Proteolytic rate (isolated EDL muscles [6]) was 180 ± 5.6 (8) nmols/g and 2 hours. For the same molecule, the “decrease of the rate of protein degradation (release of tyrosine)” value (isolated EDL muscles [6]; isolated EDL muscles, 10^-4 M in medium) was 20%.
`CC(C)(C)NCC(O)c1cc(Cl)c(N)c(Cl)c1` (stereo not shown) [clenbuterol] was tested, and the “Rate of protein synthesis” value (isolated EDL muscles [3]) was 9.36 ± 0.5 (9) nmols of [14C]phenylalanine in, the “increase of the rate of protein synthesis” value (isolated EDL muscles [3]) was 20% and the Proteolytic rate (isolated EDL muscles [6]) was 176 ± 4.4 (8) nmols/g and 2 hours.
With `CCCCN1CCCCC1C(=O)Nc1c(C)cccc1C` (stereo not shown) [B, bupivacain] the “weight of tibialis muscles” value [7] was 265 ± 4 mg/100 g of initial body weight, the Myogenin gene expression (Pax-7 and myogenin) was 142 ± 77 and the Pax-7 gene expression (Pax-7 and myogenin) was 105 ± 11.
